# “And” between values parts separate entries of the source, which are not always exact repeats. Equal entries are not always repeated. Toxic doses and inconclusive results are not listed.
# Tested on: L1210 leukemia iv in BDF1 mice, survival T/C
# Experiment: NCI In Vivo Anticancer Drug Screen. Data for tumor model L1210 Leukemia (intravenous) in B6D2F1 (BDF1) mice
# Conditions: higher = longer survival
# Procedure: The antitumor activity of compounds was measured in mice bearing transplantable tumors. Survival or tumor size were measured and the results are expressed as the measurement made in the treated group (T) divided by the measurement made in the vehicle treated control group (C). The tumor model used in this assay is L1210 Leukemia (intravenous) in B6D2F1 (BDF1) mice
compound,measurement,setting,value
CCCCCCCCCCCCCCCC(=O)OCC1OC(n2ccc(N)nc2=O)C(O)C1O (configuration not stated),T/C,"endpoint: mean survival time, dose: 5.0 mg/kg/injection, schedule: Q01DX005 (ip), vehicle: other",118 % of control and 122 % of control
same,T/C,"endpoint: mean survival time, dose: 10.0 mg/kg/injection, schedule: Q01DX005 (ip), vehicle: other",172 % of control
same,T/C,"endpoint: mean survival time, dose: 15.0 mg/kg/injection, schedule: Q01DX005 (ip), vehicle: other",177 % of control
same,T/C,"endpoint: mean survival time, dose: 18.0 mg/kg/injection, schedule: Q01DX004 (ip), vehicle: other",165 % of control and 183 % of control
same,T/C,"endpoint: mean survival time, dose: 20.0 mg/kg/injection, schedule: Q01DX005 (ip), vehicle: other",175 % of control and 176 % of control and 200 % of control
same,T/C,"endpoint: mean survival time, dose: 25.0 mg/kg/injection, schedule: Q01DX005 (ip), vehicle: other",171 % of control and 211 % of control and 220 % of control
same,T/C,"endpoint: mean survival time, dose: 27.0 mg/kg/injection, schedule: Q01DX004 (ip), vehicle: other",182 % of control and 234 % of control
same,T/C,"endpoint: mean survival time, dose: 27.0 mg/kg/injection, schedule: Q02DX004 (ip), vehicle: other",178 % of control and 193 % of control
same,T/C,"endpoint: mean survival time, dose: 30.0 mg/kg/injection, schedule: Q01DX005 (ip), vehicle: other",217 % of control and 249 % of control and 252 % of control
same,T/C,"endpoint: mean survival time, dose: 35.0 mg/kg/injection, schedule: Q01DX005 (ip), vehicle: other",201 % of control and 267 % of control and 298 % of control
same,T/C,"endpoint: mean survival time, dose: 40.0 mg/kg/injection, schedule: Q01DX004 (ip), vehicle: other",263 % of control and 291 % of control
same,T/C,"endpoint: mean survival time, dose: 40.0 mg/kg/injection, schedule: Q02DX004 (ip), vehicle: other",213 % of control and 226 % of control
same,T/C,"endpoint: mean survival time, dose: 40.0 mg/kg/injection, schedule: Q03DX004 (ip), vehicle: other",216 % of control and 246 % of control
same,T/C,"endpoint: mean survival time, dose: 60.0 mg/kg/injection, schedule: Q01DX004 (ip), vehicle: other",249 % of control and 323 % of control
same,T/C,"endpoint: mean survival time, dose: 60.0 mg/kg/injection, schedule: Q02DX004 (ip), vehicle: other",248 % of control and 280 % of control
same,T/C,"endpoint: mean survival time, dose: 60.0 mg/kg/injection, schedule: Q03DX004 (ip), vehicle: other",242 % of control and 305 % of control
same,T/C,"endpoint: mean survival time, dose: 60.0 mg/kg/injection, schedule: Q04DX004 (ip), vehicle: other",202 % of control and 260 % of control
same,T/C,"endpoint: mean survival time, dose: 90.0 mg/kg/injection, schedule: Q02DX004 (ip), vehicle: other",277 % of control and 309 % of control
same,T/C,"endpoint: mean survival time, dose: 90.0 mg/kg/injection, schedule: Q03DX004 (ip), vehicle: other",291 % of control and 328 % of control
same,T/C,"endpoint: mean survival time, dose: 90.0 mg/kg/injection, schedule: Q04DX004 (ip), vehicle: other",340 % of control and 303 % of control
same,T/C,"endpoint: mean survival time, dose: 100.0 mg/kg/injection, schedule: Q01DX001 (ip), vehicle: saline with Tween-80",200 % of control
same,T/C,"endpoint: mean survival time, dose: 135.0 mg/kg/injection, schedule: Q03DX004 (ip), vehicle: other",175 % of control and 249 % of control
same,T/C,"endpoint: mean survival time, dose: 135.0 mg/kg/injection, schedule: Q04DX004 (ip), vehicle: other",267 % of control and 327 % of control
same,T/C,"endpoint: mean survival time, dose: 150.0 mg/kg/injection, schedule: Q01DX001 (ip), vehicle: saline with Tween-80",229 % of control
same,T/C,"endpoint: mean survival time, dose: 200.0 mg/kg/injection, schedule: Q04DX004 (ip), vehicle: other",203 % of control and 244 % of control
same,T/C,"endpoint: median survival time, dose: 75.0 mg/kg/injection, schedule: Q04DX002 (ip), vehicle: saline with Tween-80",318 % of control and 327 % of control
same,T/C,"endpoint: median survival time, dose: 100.0 mg/kg/injection, schedule: Q04DX002 (ip), vehicle: saline with Tween-80",314 % of control and 315 % of control
O=C1N[C@@H]([C@H]2CC[C@H](Cl)CN2)C(=O)N[C@H]1[C@H]1CC[C@H](Cl)CN1,T/C,"endpoint: mean survival time, dose: 4.4 mg/kg/injection, schedule: Q01DX001 (ip), vehicle: saline",186 % of control
same,T/C,"endpoint: mean survival time, dose: 6.6 mg/kg/injection, schedule: Q01DX001 (ip), vehicle: saline",202 % of control
same,T/C,"endpoint: mean survival time, dose: 10.0 mg/kg/injection, schedule: Q01DX001 (ip), vehicle: saline",227 % of control
same,T/C,"endpoint: mean survival time, dose: 15.0 mg/kg/injection, schedule: Q01DX001 (ip), vehicle: saline",163 % of control
O=NN(CCCl)C(=O)NC1CS(=O)(=O)CS(=O)(=O)C1,T/C,"endpoint: mean survival time, dose: 8.0 mg/kg/injection, schedule: Q04DX004 (ip), vehicle: saline with Tween-80",177 % of control
same,T/C,"endpoint: mean survival time, dose: 12.0 mg/kg/injection, schedule: Q04DX004 (ip), vehicle: saline with Tween-80",529 % of control
same,T/C,"endpoint: mean survival time, dose: 18.0 mg/kg/injection, schedule: Q04DX004 (ip), vehicle: saline with Tween-80",687 % of control
Nc1n[nH]c(N)n1,T/C,"endpoint: mean survival time, dose: 100.0 mg/kg/injection, schedule: Q03HX024 (ip), vehicle: saline",104 % of control and 91 % of control and 100 % of control
same,T/C,"endpoint: mean survival time, dose: 150.0 mg/kg/injection, schedule: Q03HX024 (ip), vehicle: saline",103 % of control (2×) and 104 % of control
same,T/C,"endpoint: mean survival time, dose: 225.0 mg/kg/injection, schedule: Q03HX024 (ip), vehicle: saline",112 % of control and 116 % of control
same,T/C,"endpoint: mean survival time, dose: 335.0 mg/kg/injection, schedule: Q03HX024 (ip), vehicle: saline",153 % of control and 159 % of control (2×)
same,T/C,"endpoint: mean survival time, dose: 500.0 mg/kg/injection, schedule: Q03HX024 (ip), vehicle: saline",201 % of control and 215 % of control and 257 % of control
same,T/C,"endpoint: mean survival time, dose: 4000.0 mg/kg/injection, schedule: Q01DX001 (ip), vehicle: saline",120 % of control
COc1cccc2c1C(=O)c1c(O)c3c(c(O)c1C2=O)C[C@@](O)(C(=O)CO)C[C@@H]3OC1CC(N)C(O)C(C)O1 (some centres not stated),T/C,"endpoint: mean survival time, dose: 0.6 mg/kg/injection, schedule: Q01DX005 (iv), vehicle: clinical formulation",100 % of control
same,T/C,"endpoint: mean survival time, dose: 0.7 mg/kg/injection, schedule: Q01DX009 (ip), vehicle: clinical formulation",97 % of control
same,T/C,"endpoint: mean survival time, dose: 0.7 mg/kg/injection, schedule: Q01DX009 (sc), vehicle: clinical formulation",100 % of control
same,T/C,"endpoint: mean survival time, dose: 0.75 mg/kg/injection, schedule: Q01DX005 (iv), vehicle: saline",90 % of control
same,T/C,"endpoint: mean survival time, dose: 0.9 mg/kg/injection, schedule: Q01DX005 (iv), vehicle: clinical formulation",102 % of control
same,T/C,"endpoint: mean survival time, dose: 1.1 mg/kg/injection, schedule: Q01DX009 (ip), vehicle: clinical formulation",100 % of control
same,T/C,"endpoint: mean survival time, dose: 1.1 mg/kg/injection, schedule: Q01DX009 (sc), vehicle: clinical formulation",100 % of control
same,T/C,"endpoint: mean survival time, dose: 1.4 mg/kg/injection, schedule: Q01DX005 (iv), vehicle: clinical formulation",101 % of control
same,T/C,"endpoint: mean survival time, dose: 1.5 mg/kg/injection, schedule: Q01DX005 (iv), vehicle: saline",101 % of control
same,T/C,"endpoint: mean survival time, dose: 1.7 mg/kg/injection, schedule: Q01DX009 (ip), vehicle: clinical formulation",102 % of control
same,T/C,"endpoint: mean survival time, dose: 1.7 mg/kg/injection, schedule: Q01DX009 (sc), vehicle: clinical formulation",105 % of control
same,T/C,"endpoint: mean survival time, dose: 2.4 mg/kg/injection, schedule: Q01DX005 (iv), vehicle: clinical formulation",108 % of control
same,T/C,"endpoint: mean survival time, dose: 2.4 mg/kg/injection, schedule: Q01DX009 (ip), vehicle: clinical formulation",105 % of control
same,T/C,"endpoint: mean survival time, dose: 2.4 mg/kg/injection, schedule: Q01DX009 (sc), vehicle: clinical formulation",112 % of control
same,T/C,"endpoint: mean survival time, dose: 2.5 mg/kg/injection, schedule: Q01DX005 (iv), vehicle: saline",196 % of control
same,T/C,"endpoint: mean survival time, dose: 2.8 mg/kg/injection, schedule: Q01DX005 (iv), vehicle: clinical formulation",108 % of control and 117 % of control
same,T/C,"endpoint: mean survival time, dose: 3.0 mg/kg/injection, schedule: Q01DX005 (iv), vehicle: saline",114 % of control
same,T/C,"endpoint: mean survival time, dose: 3.6 mg/kg/injection, schedule: Q01DX009 (ip), vehicle: clinical formulation",110 % of control
same,T/C,"endpoint: mean survival time, dose: 3.6 mg/kg/injection, schedule: Q01DX009 (sc), vehicle: clinical formulation",119 % of control
same,T/C,"endpoint: mean survival time, dose: 4.0 mg/kg/injection, schedule: Q01DX005 (iv), vehicle: saline",86 % of control
same,T/C,"endpoint: mean survival time, dose: 4.2 mg/kg/injection, schedule: Q01DX005 (iv), vehicle: clinical formulation",123 % of control
same,T/C,"endpoint: mean survival time, dose: 6.3 mg/kg/injection, schedule: Q01DX005 (iv), vehicle: clinical formulation",124 % of control
same,T/C,"endpoint: mean survival time, dose: 7.0 mg/kg/injection, schedule: Q01DX005 (iv), vehicle: saline",87 % of control
same,T/C,"endpoint: mean survival time, dose: 9.4 mg/kg/injection, schedule: Q01DX005 (iv), vehicle: clinical formulation",115 % of control
same,T/C,"endpoint: mean survival time, dose: 14.1 mg/kg/injection, schedule: Q01DX005 (iv), vehicle: clinical formulation",113 % of control
COc1cccc2c1C(=O)c1c(O)c3c(c(O)c1C2=O)C[C@@](O)(C(C)=O)C[C@@H]3OC1CC(N)C(O)C(C)O1 (some centres not stated),T/C,"endpoint: mean survival time, dose: 3.0 mg/kg/injection, schedule: Q04DX003 (iv), vehicle: water",216 % of control
same,T/C,"endpoint: mean survival time, dose: 5.0 mg/kg/injection, schedule: Q01DX001 (iv), vehicle: saline",105 % of control
same,T/C,"endpoint: mean survival time, dose: 5.0 mg/kg/injection, schedule: Q04DX003 (iv), vehicle: water",121 % of control
same,T/C,"endpoint: mean survival time, dose: 10.0 mg/kg/injection, schedule: Q01DX001 (iv), vehicle: saline",115 % of control
same,T/C,"endpoint: mean survival time, dose: 14.0 mg/kg/injection, schedule: Q04DX003 (iv), vehicle: water",160 % of control
same,T/C,"endpoint: mean survival time, dose: 20.0 mg/kg/injection, schedule: Q01DX001 (iv), vehicle: saline",150 % of control
same,T/C,"endpoint: mean survival time, dose: 23.0 mg/kg/injection, schedule: Q04DX003 (iv), vehicle: water",84 % of control

# — PubChem BioAssay AID254 (DTP/NCI, 2004)
